Test results published in patent US7074789B2, “Kinase inhibitors” (Amgen Inc., priority 1999, dated 2006).

How the values were obtained:
Type in all cases: biochemical
Src = molecular target: T1, Src (Homo sapiens, UniProt P12931); assay: Kinase inhibition assay (33P transfer), Src; conditions: Table 6, Src-1 kinase inhibition class
T1 construct: Kinases are expressed as either kinase domains or full length constructs; made in house
In short: (§1)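 Read-out: scintillation counts of 33P moved from ATP onto synthetic peptide polymer coated on the well surface, after washing with 0.5% phosphoric acid. Enzymes were tagged (GST or polyHistidine) and came from bacterial or insect-cell expression. IC50 marks 50% loss of incorporated label.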

ErbB2 = molecular target: T2, ErbB2 (Homo sapiens, UniProt P04626); assay: Kinase inhibition assay (33P transfer), ErbB2; conditions: read-out: ErbB2-2
T2 construct: Kinases are expressed as either kinase domains or full length constructs; made in house
T2 sequence (P04626 23-1255, species assumed): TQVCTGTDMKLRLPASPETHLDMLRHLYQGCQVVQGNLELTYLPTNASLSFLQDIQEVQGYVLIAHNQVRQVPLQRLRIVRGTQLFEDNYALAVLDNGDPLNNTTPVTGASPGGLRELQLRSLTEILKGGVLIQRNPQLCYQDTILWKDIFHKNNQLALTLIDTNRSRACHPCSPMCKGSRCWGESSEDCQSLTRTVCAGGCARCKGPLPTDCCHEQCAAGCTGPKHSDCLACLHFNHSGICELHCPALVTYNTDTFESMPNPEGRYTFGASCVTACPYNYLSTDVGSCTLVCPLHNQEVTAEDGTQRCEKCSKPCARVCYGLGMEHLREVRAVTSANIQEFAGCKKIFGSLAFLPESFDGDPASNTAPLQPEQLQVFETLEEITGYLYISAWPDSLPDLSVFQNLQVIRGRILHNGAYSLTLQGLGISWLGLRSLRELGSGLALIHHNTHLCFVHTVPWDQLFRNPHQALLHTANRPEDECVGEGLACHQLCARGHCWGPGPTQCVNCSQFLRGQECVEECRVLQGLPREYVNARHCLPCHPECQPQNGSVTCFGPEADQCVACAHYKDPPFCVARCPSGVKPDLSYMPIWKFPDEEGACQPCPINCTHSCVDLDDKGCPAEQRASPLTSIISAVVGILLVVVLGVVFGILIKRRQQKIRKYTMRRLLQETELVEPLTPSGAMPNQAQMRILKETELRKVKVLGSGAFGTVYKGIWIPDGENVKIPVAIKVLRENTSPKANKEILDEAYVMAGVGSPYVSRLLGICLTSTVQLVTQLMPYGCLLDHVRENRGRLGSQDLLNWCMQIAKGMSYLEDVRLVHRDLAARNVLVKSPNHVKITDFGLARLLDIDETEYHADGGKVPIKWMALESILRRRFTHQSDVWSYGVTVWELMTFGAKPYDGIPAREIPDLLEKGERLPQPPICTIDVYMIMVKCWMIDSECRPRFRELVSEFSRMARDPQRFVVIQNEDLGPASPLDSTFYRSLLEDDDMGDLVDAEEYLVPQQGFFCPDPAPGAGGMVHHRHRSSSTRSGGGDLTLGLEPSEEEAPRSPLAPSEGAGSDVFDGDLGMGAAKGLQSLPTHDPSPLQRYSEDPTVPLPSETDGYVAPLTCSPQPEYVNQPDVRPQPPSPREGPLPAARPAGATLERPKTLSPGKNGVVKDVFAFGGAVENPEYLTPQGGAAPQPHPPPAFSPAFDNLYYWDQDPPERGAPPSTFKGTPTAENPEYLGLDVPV
In short: as §1

Flt-1 = molecular target: T3, Flt-1 (Homo sapiens, UniProt P17948); assay: Kinase inhibition assay (33P transfer), Flt-1
T3 construct: Kinases are expressed as either kinase domains or full length constructs; made in house
T3 sequence (P17948 27-1338, species assumed): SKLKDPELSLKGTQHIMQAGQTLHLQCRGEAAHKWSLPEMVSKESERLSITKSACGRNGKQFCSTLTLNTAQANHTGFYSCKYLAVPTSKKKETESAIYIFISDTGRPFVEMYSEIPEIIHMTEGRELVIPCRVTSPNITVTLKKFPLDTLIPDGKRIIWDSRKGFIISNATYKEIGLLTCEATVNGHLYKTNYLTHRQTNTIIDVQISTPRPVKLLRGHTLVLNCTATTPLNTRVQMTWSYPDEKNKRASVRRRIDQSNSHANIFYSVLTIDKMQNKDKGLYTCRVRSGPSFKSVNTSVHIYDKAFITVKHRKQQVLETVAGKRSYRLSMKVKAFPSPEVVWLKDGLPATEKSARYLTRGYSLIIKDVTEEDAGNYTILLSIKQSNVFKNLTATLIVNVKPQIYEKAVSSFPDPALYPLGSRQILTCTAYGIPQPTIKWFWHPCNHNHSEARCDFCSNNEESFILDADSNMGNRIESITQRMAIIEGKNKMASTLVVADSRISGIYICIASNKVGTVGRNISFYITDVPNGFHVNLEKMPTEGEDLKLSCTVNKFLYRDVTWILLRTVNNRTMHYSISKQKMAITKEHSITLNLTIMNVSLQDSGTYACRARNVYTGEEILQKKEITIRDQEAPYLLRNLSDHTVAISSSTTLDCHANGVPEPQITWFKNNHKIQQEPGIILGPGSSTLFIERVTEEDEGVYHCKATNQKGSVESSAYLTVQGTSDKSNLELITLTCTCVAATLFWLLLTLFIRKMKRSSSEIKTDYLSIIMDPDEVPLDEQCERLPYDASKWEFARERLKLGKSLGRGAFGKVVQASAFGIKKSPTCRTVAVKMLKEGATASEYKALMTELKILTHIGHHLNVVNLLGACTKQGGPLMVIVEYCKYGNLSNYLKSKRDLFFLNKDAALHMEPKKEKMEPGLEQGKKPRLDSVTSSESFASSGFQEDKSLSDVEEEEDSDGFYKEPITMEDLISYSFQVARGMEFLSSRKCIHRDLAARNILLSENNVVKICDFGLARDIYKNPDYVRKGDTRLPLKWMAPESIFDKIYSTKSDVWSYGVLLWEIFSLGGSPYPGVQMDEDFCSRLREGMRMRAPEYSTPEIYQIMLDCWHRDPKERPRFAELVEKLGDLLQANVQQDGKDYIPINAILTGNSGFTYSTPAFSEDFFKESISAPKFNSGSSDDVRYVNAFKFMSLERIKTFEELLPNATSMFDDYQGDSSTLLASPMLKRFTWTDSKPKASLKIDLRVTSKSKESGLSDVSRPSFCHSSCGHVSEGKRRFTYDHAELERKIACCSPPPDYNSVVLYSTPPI
In short: as §1

PDGFRB = molecular target: T4, PDGFRB (Homo sapiens, UniProt P09619); assay: Kinase inhibition assay (33P transfer), PDGFRB; conditions: read-out: PDGFRB-1
T4 construct: Kinases are expressed as either kinase domains or full length constructs; made in house
T4 sequence (P09619 33-1106, species assumed): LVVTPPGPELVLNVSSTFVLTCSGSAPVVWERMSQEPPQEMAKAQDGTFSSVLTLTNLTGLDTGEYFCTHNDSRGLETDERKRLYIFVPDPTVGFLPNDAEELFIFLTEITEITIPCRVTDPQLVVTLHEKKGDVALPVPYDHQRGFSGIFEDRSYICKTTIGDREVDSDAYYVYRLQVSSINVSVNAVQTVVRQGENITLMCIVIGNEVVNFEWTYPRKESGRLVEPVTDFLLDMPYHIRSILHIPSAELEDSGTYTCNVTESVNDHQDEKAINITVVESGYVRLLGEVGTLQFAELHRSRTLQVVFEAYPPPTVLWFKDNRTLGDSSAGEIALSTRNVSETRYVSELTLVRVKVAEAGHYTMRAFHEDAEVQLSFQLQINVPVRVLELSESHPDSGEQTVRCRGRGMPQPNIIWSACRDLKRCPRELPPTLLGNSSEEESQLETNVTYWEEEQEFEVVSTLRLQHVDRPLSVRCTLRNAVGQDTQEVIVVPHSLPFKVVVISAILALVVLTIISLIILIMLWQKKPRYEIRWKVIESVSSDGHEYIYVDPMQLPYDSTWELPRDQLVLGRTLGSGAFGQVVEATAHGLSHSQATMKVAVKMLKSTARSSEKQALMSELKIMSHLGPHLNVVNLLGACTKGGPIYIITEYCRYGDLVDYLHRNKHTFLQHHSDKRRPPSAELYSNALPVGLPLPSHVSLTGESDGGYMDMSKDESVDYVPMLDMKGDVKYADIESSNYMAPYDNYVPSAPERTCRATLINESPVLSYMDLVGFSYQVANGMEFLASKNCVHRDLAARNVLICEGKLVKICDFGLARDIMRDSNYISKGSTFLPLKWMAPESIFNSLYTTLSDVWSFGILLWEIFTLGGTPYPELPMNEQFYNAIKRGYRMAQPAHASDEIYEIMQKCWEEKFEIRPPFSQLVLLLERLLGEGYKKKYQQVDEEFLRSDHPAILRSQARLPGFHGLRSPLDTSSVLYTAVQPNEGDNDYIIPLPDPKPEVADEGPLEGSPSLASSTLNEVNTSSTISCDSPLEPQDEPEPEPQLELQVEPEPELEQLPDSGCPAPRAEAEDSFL

EPHB4 = molecular target: T5, EPHB4 (Homo sapiens, UniProt P54760); assay: Kinase inhibition assay (33P transfer), EPHB4; conditions: read-out: EPHB4-1
T5 construct: Kinases are expressed as either kinase domains or full length constructs; made in house
T5 sequence (P54760 16-987): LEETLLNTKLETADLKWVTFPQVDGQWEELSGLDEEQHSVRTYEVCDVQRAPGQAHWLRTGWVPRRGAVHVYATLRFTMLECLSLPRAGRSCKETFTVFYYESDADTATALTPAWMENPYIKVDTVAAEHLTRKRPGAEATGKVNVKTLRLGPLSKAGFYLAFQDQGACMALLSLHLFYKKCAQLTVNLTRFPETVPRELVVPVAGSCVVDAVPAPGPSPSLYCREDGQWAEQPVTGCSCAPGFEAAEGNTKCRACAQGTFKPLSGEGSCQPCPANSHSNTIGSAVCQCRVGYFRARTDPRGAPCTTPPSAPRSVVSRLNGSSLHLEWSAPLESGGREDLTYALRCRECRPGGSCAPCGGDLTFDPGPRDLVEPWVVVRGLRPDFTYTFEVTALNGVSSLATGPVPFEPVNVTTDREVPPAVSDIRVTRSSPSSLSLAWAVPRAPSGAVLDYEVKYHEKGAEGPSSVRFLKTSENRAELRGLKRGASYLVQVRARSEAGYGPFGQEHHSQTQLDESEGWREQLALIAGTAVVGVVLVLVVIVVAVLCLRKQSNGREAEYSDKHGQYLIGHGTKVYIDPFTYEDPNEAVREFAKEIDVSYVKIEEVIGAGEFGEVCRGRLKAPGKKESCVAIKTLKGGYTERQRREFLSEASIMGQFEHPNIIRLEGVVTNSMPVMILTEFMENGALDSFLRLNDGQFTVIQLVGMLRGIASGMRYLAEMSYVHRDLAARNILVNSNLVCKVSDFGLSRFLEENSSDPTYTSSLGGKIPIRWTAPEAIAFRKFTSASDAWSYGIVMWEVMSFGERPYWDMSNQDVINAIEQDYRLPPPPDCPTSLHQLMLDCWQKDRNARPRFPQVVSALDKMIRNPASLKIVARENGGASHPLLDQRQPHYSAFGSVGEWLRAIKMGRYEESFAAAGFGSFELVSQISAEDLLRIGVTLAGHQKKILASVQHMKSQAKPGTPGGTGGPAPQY

Ret-1 = molecular target: T6, Ret-1 (Homo sapiens, UniProt P07949); assay: Kinase inhibition assay (33P transfer), Ret; conditions: Table 6, Ret-1 kinase inhibition class
T6 construct: Kinases are expressed as either kinase domains or full length constructs; made in house
T6 sequence (P07949 29-1114): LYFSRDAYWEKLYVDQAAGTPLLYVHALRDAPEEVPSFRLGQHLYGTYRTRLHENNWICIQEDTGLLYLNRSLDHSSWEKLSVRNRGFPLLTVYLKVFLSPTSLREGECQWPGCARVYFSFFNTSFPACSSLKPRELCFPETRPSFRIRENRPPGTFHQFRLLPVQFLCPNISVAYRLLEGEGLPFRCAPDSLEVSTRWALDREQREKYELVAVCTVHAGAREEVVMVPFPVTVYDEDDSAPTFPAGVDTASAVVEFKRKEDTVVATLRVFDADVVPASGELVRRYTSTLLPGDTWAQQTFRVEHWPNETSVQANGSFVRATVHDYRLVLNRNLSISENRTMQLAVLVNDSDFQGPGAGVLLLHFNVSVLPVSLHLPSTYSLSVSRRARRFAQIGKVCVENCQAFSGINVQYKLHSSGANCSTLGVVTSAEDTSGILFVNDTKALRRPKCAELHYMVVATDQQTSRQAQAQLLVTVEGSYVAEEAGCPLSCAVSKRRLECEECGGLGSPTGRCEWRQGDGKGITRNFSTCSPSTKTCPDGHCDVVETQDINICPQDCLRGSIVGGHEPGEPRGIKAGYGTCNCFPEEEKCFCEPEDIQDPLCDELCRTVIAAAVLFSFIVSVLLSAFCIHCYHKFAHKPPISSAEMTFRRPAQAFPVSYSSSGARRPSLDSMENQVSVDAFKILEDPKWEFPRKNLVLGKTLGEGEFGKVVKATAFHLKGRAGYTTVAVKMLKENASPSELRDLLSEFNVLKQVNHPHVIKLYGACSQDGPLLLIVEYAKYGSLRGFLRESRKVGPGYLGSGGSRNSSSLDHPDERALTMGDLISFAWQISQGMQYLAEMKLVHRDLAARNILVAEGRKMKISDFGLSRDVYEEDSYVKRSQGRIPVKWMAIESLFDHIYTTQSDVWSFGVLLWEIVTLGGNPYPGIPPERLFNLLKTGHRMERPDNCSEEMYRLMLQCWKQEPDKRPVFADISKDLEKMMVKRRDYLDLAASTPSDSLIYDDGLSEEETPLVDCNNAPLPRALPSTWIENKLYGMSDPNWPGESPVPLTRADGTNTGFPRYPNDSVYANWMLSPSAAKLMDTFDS

Row | IC50 (Src) [µM] | IC50 (ErbB2) [µM] | IC50 (Flt-1) [µM] | IC50 (PDGFRB) [µM] | IC50 (EPHB4) [µM] | IC50 (Ret-1) [µM] | Structure (SMILES)
1 | 0.888 to 5.33 | 0.888 to 5.33 | > 9.99 | 0.888 to 5.33 | > 9.99 | 0.888 to 5.33 | COCCOc1ccc(Nc2ncnc(Nc3ccc4[nH]ccc4c3)n2)cc1OCCOC [Compound 321]
2 | 6.04 to 8.81 | 1.01 to 6.04 | 1.01 to 6.04 | 1.01 to 6.04 | < 1.01 | > 11.3 | COc1cc(Nc2ncnc(Nc3ccc(C(=O)O)cc3)n2)cc(OC)c1OC [Compound 104]
3 | < 1.08 | 1.08 to 6.46 | 1.08 to 6.46 | < 1.08 | 1.08 to 6.46 | < 1.08 | COc1cc(Nc2ncnc(Nc3cccc(F)c3)n2)cc(OC)c1OC [Compound 304]
4 | > 12.4 | > 12.4 | > 12.4 | > 12.4 | > 12.4 | 6.6 to 9.63 | COc1ccc(Nc2ncnc(-n3c(N)nc4ccccc43)n2)cc1OC [Compound 285]
